# Test results taken from patent US10352938B2, “Macrocyclic HOPO chelators” (LUMIPHORE, INC., priority 2009, dated 2019).
# Like-named read-outs stand apart in the source and are kept apart here.
# Legend:
# [1] = Triplet excited state energy from phosphorescence of Gd complexes at 77K; format: physicochemical; details: solid matrix (methanol/ethanol 1/4), using the Gd complexes
# Experimental: Estimation of the energies of the ligand based triplet excited state were determined using the Gd(III) complexes. Gadolinium was chosen because it is a 4f^7 lanthanide cation having a similar 4f electronic configuration and size as the europium cation (4f^6), but lacking an accessible metal based low energy electronic excited state. At room temperature, only a broad weak emission centered between 380-400 nm can be seen for the Gd(III) complexes. […] At 77K, in solid matrix, an emission band at approx. 500 nm can be seen (FIG. 8). This emission, red-shifted compared to the singlet excited state, can be assigned to phosphorescence from the triplet excited state, lower in energy than the singlet excited state observed at room temperature. Selective time gated phosphorescence spectra (delay 0.1 ms) of the gadolinium complexes at 77K are depicted in FIG. 8.
# [2] = Stability titration (pEu) by competitive batch titration using DTPA; format: physicochemical; details: for pEu value as compared to DTPA: in words
# Experimental: (§1) Stability Titrations. The general procedure used to determine the pEu values of ligands was adapted from an already described study using Gd and are similar to that already reported for other complexes. Different volumes of a standardized DTPA stock solution were added to solutions of constant ligand, metal, and electrolyte concentrations. Concentrations of complexed ligand in each solution were determined by subtracting the remaining luminescence intensity after addition of DTPA to the initial luminescence intensity at identical pH and those concentrations were used as references for the analysis. Stability of compounds towards mM concentrations of EDTA and divalent cations will be assessed by incubation of the proposed molecules at nM concentration at room temperature in aqueous solutions of test ions. Time Resolved Fluorescent signal will be assessed at the outset of experiment and monitored over a minimum of 24 hours to determine signal change.
# [3] = competitive batch titration using DTPA in 0.1M TRIS pH = 7.4 and 0.1M KCl; cited from earlier work
# [4] = cited from earlier work; for λ: absorption maximum; for ε: extinction coefficient
# [5] = UV/visible absorption spectroscopy of Eu(III) complexes in TRIS buffer; format: physicochemical
# Excerpt: Extinction Coefficient. A series of solutions of varied concentrations will be prepared from the solids based on mass and purity. The absorbance of each of these solutions at both 340 nm and at the appropriate acceptor wavelength will be measured and plotted according to Beer's Law (A=εcL where A is absorbance, ε is the extinction coefficient in M^−1 cm^−1, c is concentration, and L is path length in cm) with the fitted linear regression slope equal to […] on a plot of A as a function of C.
# Each of the spectra have absorption maxima around 335-340 nm (FIG. 2). Those bands are composed of two electronic transitions; at higher energy, a purely π-π* transition and, at slightly lower energy (around ca. 320 nm), a π-π* transition with some n-π* character, as evidenced previously from TD-DFT calculations. […] This interaction gives maxima blue-shifting from 341 nm for [Eu(H(2,2)-1,2-HOPO)]^0 to 334 nm for [Eu(H(17O5,2)-1,2-HOPO)]^0 (as low as 332 nm for)[Eu(5LIN^Me-1,2HOPO)2]^0).
# [6] = Luminescence quantum yield, emission and brightness in aqueous 0.1 M TRIS buffer; format: physicochemical; details: for øTot: 0.1M TRIS buffer pH = 7.4; for Brightness: at maximum absorption, product of quantum yield and molar absorption coefficient, 0.1 M TRIS pH = 7.4; for overall quantum yield (in words): related to inner-sphere coordinated water
# Experimental: Quantum Yield. Quantum yield will be measured using established methods. Fluorescence quantum yield Q are measured in diluted solution with an optical density lower than 0.1 using the following equation Qx/Qr=[Ar(λr)/Ax(λx)][nx^2/nr^2][Dx/Dr] were A is the absorbance at the excitation wavelength (λ), n the refractive index and D the integrated luminescence intensity. Subscripts “r” and “x” stand for reference and sample, respectively. References will be a quinine bisulfate in 1N sulfuric acid in aqueous solution (Qt=0.546)^1 and Ru(bpy)3 2C1 complexes in water solution (Qr=0.028)^2 for all complexes. A plot of integrated emission intensity (i.e. Dr) versus absorbance (i.e. Ar(λr)) yields a linear plot with a slope which can be equated to the reference quantum yield Qr. By analogy, for the unknown sample, a plot of integrated emission intensity (i.e. Dx) versus absorbance (i.e. Ax(λx)) yields a linear plot and Qx can then be evaluated. A minimum of at least two independent measurements will be averaged to derive a reliable value.
# [7] = cited from earlier work; for τ (D2O): first component where two are printed; for τ (H2O): first (longer) component; for τ (H2O), second component: second (shorter) component of biexponential decay; for q / q, second species: number of inner sphere water molecules; for q: first species
# [8] = Luminescence lifetimes (TRIS buffer, deuterated water, 77K) and inner sphere water number q; details: for τ^D / τ (77K): first component; for q / q, second species: inner sphere water molecules; for q: improved Horrock's equations, first species; for τ (77K) / τ (77K), second component: solid matrix at 77K (methanol/ethanol 1/4)
# Experimental: Fluorescent decay signals can be acquired using an IBH DataStation Hub photon counting module and data analysis performed using the commercially available DAS 6 decay analysis software package from HORIBA Jobin Yvon IBH. Goodness of fit will be assessed by minimizing the reduced chi squared function, χ2, and a visual inspection of the weighted residuals. Each trace will use at least 10,000 points and the reported lifetime values result from at least three independent measurements.
# In addition to the steady state emission spectra, the luminescence quantum yields and luminescence lifetimes of the Eu(III) complexes were also measured in aqueous solution with 0.1 M TRIS buffer pH=7.4 and in deuterated solution to estimate the number of inner sphere water molecule (i.e. q) using the improved Horrock's equations.
# Luminescence lifetimes were also determined at 77K, in a solid matrix (Table 5), which have allowed us to determine whether back energy transfer between the donor triplet excited state and the acceptor manifold excited state of the lanthanide is present, or alternately whether quenching via low lying LMCT state occurs.
# [9] = quantum yield; cited from earlier work
# [10] = Calculation of Eu luminescence parameters (radiative lifetime, rate constants, efficiencies); format: physicochemical
# Experimental: In this equation, the ηISC ηET term is termed the sensitization efficiency, ηsens (ηsens=ηISC ηET). All the luminescence parameters τR (the pure radiative luminescence lifetime), kR and knR (the radiative and non-radiative constant rate) can be deduced. These parameters were calculated for five of the octadentate complexes and the model complex that present only one species in solution at pH=7.4 and are reported in Table 6.
# [11] = Stability testing in concentrated solutions of divalent cations and EDTA; format: physicochemical; details: over 24 hrs
# Experimental: as §1
# Although these conditions represent concentrations that are in excess of those typically encountered in routine commercial use, they are a benchmark used in the high-throughput screening industry to evaluate these types of molecules. For comparison, stability testing of the commercialized Lumi4-Tb compound is shown (FIG. 3, top) and represents the stability benchmark for these types of molecules.
# [12] = listed as [Eu(H(3,2)-1,2HOPO)]^0
# [13] = TRIS buffer pH = 7.4, listed as [Eu(H(3,2)-1,2HOPO)]^0
# [14] = deuterated solution, listed as [Eu(H(3,2)-1,2HOPO)]^0
# [15] = listed as [Eu(H(4,2)-1,2HOPO)]^0
# [16] = TRIS buffer pH = 7.4, listed as [Eu(H(4,2)-1,2HOPO)]^0
# [17] = deuterated solution, listed as [Eu(H(4,2)-1,2HOPO)]^0
compound,measurement,setting,value
O=C(NCCN(CCCCN(CCNC(=O)c1cccc(=O)n1O)CCNC(=O)c1cccc(=O)n1O)CCNC(=O)c1cccc(=O)n1O)c1cccc(=O)n1O [Eu(H3)],T0-0 (triplet excited state energy),[1]; [12],"21,900 cm^−1"
same,pEu value as compared to DTPA,[2],decreased
same,decrease in stability relative to Eu(H8-2) and Eu(H11-3),[2]; pEu difference,2.9 log unit
same,pEu,[3],17.5
same,λ,[4],339 nm
same,ε,[4],"17,700 M^1 cm^−1"
same,ε,[5]; [13],"17,700 M^−1 · cm^−1"
same,λ^maxabs,[5]; [13],339 nm
same,øTot,[6]; [12],0.037
same,Brightness,[6]; [12],655 M⁻¹ cm⁻¹
same,overall quantum yield (in words),[6],low quantum yields
same,τ (D2O),[7],811 μs
same,"τ (D2O), second component",[7],369 μs
same,τ (H2O),[7],552 μs
same,"τ (H2O), second component",[7],253 μs
same,q,[7],0.3
same,"q, second species",[7],1.0
same,τ^D,[8]; [14],811; μs
same,"τ^D, second component",[8]; [14],369 μs
same,q,"[8]; listed as [Eu(H(3,2)-1,2-HOPO)]^0",0.3
same,q,[8]; [12],0.3;
same,"q, second species",[8]; [12],1.0
same,τ (77K),[8]; [12],1040; μs
same,"τ (77K), second component",[8]; [12],781 μs
same,ϕEu,[9],0.037
O=C(NCCN(CCNC(=O)c1cccc(=O)n1O)CCOCCOCCOCCN(CCNC(=O)c1cccc(=O)n1O)CCNC(=O)c1cccc(=O)n1O)c1cccc(=O)n1O [Eu(H11-3)],T0-0 (triplet excited state energy),[1],"22,120 cm^−1"
same,pEu,[2]; competitive batch titration using DTPA in 0.1M TRIS pH = 7.4 and 0.1M KCl,20.4
same,pEu value as compared to DTPA,[2],increased
same,sensitization process efficiency,[10],40.2%
same,η^Eu,[10]; efficiency of metal centred luminescence,0.411
same,knr,[10]; non-radiative rate constant,882 s⁻¹
same,τrad,"[10]; pure radiative luminescence lifetime, aqueous TRIS pH = 7.4",1630 μs
same,kr,[10]; radiative rate constant,615 s⁻¹
same,η^sens,[10]; sensitization efficiency,0.402
same,ε,[5]; TRIS buffer pH = 7.4,"15,070 M^−1 · cm^−1"
same,λ^maxabs,[5]; TRIS buffer pH = 7.4,334 nm
same,λ,[5]; absorption maximum,334 nm
same,ε,"[5]; extinction coefficient, in M-1·cm-1","15,070"
same,øTot,[6],0.165
same,ϕTot,"[6]; aqueous TRIS pH = 7.4, complexes with only one species",0.165
same,quantum yield in aqueous medium,[6]; aqueous medium,17%
same,ϕTot,[6]; aqueous quantum yield,0.165
same,Brightness,[6],2485 M⁻¹ cm⁻¹
same,overall quantum yield (in words),[6],comparatively high quantum yields
same,τ,[8]; aqueous TRIS pH = 7.4,668 μs
same,τ^D,[8]; deuterated solution,888 μs
same,τ^D,[8]; deuterated water,888 μs
same,τ,[8]; first (longer) component,668 μs
same,q,[8],0.1
same,τ (77K),[8],765 μs
same,signal change in concentrated solutions of divalent cations and EDTA,[11],significant signal loss
O=C(NCCN(CCCCN(CCNC(=O)c1cccc(=O)n1O)CCNC(=O)c1cccc(=O)n1O)CCNC(=O)c1cccc(=O)n1O)c1cccc(=O)n1O [Eu(H4)],T0-0 (triplet excited state energy),[1]; [15],"22,390 cm^−1"
same,pEu value as compared to DTPA,[2],decreased
same,pEu,[3],18.4
same,λ,[4],337 nm
same,ε,[4],"17,900 M^1 cm^−1"
same,ε,[5]; [16],"17,900 M^−1 · cm^−1"
same,λ^maxabs,[5]; [16],337 nm
same,øTot,"[6]; listed as [Eu(H(4,2)-1,2-HOPO)]^0",0.031
same,øTot,[6]; [15],0.031
same,Brightness,[6]; [15],555 M⁻¹ cm⁻¹
same,overall quantum yield (in words),[6],low quantum yields
same,τ (D2O),[7],803 μs
same,"τ (D2O), second component",[7],338 μs
same,τ (H2O),[7],649 μs
same,"τ (H2O), second component",[7],236 μs
same,q,[7],0
same,"q, second species",[7],1.1
same,τ^D,[8]; [17],803; μs
same,"τ^D, second component",[8]; [17],338 μs
same,q,[8]; [15],0;
same,"q, second species",[8]; [15],1.1
same,τ (77K),[8]; [15],902; μs
same,"τ (77K), second component",[8]; [15],645 μs
same,ϕEu,[9],0.031
